Laboratory results taken from patent US20220152064A1, “BENZOAZEPINE COMPOUND-CONTAINING PHARMACEUTICAL COMPOSITION” (OTSUKA PHARMACEUTICAL CO., LTD., priority 2019, published 2022).

Test: Side effects on the skin or subcutaneous tissue in test of intravenous administration of compound A composition to healthy subjects
Format: in vivo, human
Conditions: for Erythema (number of subjects) / Hyperhidrosis (number of subjects) / Number of subjects who showed at least one symptom / Pruritus (number of subjects): N=6 healthy adult males, within 24 hours after initiation of administration
Protocol: Water for injection (5 mL) was added to each of the obtained 0 mg formulation and 25 mg formulation to dissolve the freeze-dried compositions (freeze-dried cakes), thus obtaining aqueous solutions for injection. When the 25 mg formulation was dissolved in 5 mL of water for injection, 5.21 mL of the aqueous solution composition (25 mg formulation (aqueous solution for injection)) shown in Table 1 comprising 5 mg/mL of the active ingredient (compound A) was reconstituted. Further, according to the compositions shown in Table 3 below, administration solutions were prepared by mixing the 25 mg formulation (aqueous solution for injection), the 0 mg formulation (aqueous solution for injection), and a physiological saline (physiological saline solution).
Each of the obtained administration solutions was intravenously administered with a syringe pump over the administration times shown in Table 3. The number of subjects to which each solution was administered was 6 healthy adult males (aged 20 to 40 years old) (N=6).
The number of subjects who developed, within 24 hours after the initiation of administration, side effects that could appear on the skin or subcutaneous tissue (erythema, hyperhidrosis, or pruritus) was recorded.

[1] = administration solution 1, 15 mg compound A i.v. over 2 hours
[2] = administration solution 2, 7.5 mg compound A i.v. over 2 hours
[3] = administration solution 3, 15 mg compound A i.v. over 5 minutes
[4] = administration solution 4, 7.5 mg compound A i.v. over 5 minutes
[5] = administration solution 5, 15 mg compound A i.v. over 1 minute
[6] = administration solution 6, 7.5 mg compound A i.v. over 1 minute

Cc1ccccc1C(=O)Nc1ccc(C(=O)N2CCCC(OP(=O)([O-])[O-])c3cc(Cl)ccc32)c(C)c1.[Na+].[Na+] (centres unmarked) [compound A]
erythema, hyperhidrosis, or pruritus (7.5 mg or 15 mg of compound A intravenously administered over a period of 1 minute or 5 minutes (administration solutions 3 to 6)): frequently observed | side effects that could appear on the skin or subcutaneous tissue, such as erythema, hyperhidrosis, or pruritus (7.5 mg or 15 mg of compound A slowly administered over a period of 2 hours (administration solutions 1 and 2)): no side effects | Erythema (number of subjects) [1]: 0 human | Hyperhidrosis (number of subjects) [1]: 0 human | Number of subjects who showed at least one symptom [1]: 0 human | Pruritus (number of subjects) [1]: 0 human | Erythema (number of subjects) [2]: 0 human | Hyperhidrosis (number of subjects) [2]: 0 human | Number of subjects who showed at least one symptom [2]: 0 human | Pruritus (number of subjects) [2]: 0 human | Erythema (number of subjects) [3]: 4 human | Hyperhidrosis (number of subjects) [3]: 2 human | Number of subjects who showed at least one symptom [3]: 5 human | Pruritus (number of subjects) [3]: 4 human | Erythema (number of subjects) [4]: 3 human | Hyperhidrosis (number of subjects) [4]: 2 human | Number of subjects who showed at least one symptom [4]: 4 human | Pruritus (number of subjects) [4]: 3 human | Erythema (number of subjects) [5]: 5 human | Hyperhidrosis (number of subjects) [5]: 2 human | Number of subjects who showed at least one symptom [5]: 5 human | Pruritus (number of subjects) [5]: 4 human | Erythema (number of subjects) [6]: 5 human | Hyperhidrosis (number of subjects) [6]: 0 human | Number of subjects who showed at least one symptom [6]: 5 human | Pruritus (number of subjects) [6]: 4 human
